# Source: US10961176B2, “Compound hexadecaphlorethol isolated from Ishige okamurae and use thereof” (Jeju National University Industry-Academic Cooperation …, priority 2018, dated 2021)
# Experiments:
# [1] = system: alloxan-treated adult zebrafish; test: Blood glucose level in alloxan-treated adult zebrafish; assay type: in vivo
# Method: Wild-type adult zebrafish were treated for 1 hour with 2 mg/ml alloxan and then for 1 hour with 1% glucose in the absence of insulin. Subsequently, the reaction solution was exchanged with water in which the zebrafish were then left for 1 hour before treatment with HdP, metformin, or BAPTA-AM for 90 min. Thus, the experiment groups included a non-treated group, an alloxan-treated group (control), a group treated with alloxan and HdP (0.3 μg/g body weight), a group treated with alloxan and metformin (5 μg/g body weight), a group treated with alloxan and BAPTA-AM (3 μg/g body weight), and a group treated with alloxan, BAPTA-AM (3 μg/g body weight), and HdP (0.3 μg/g body weight).
# [2] = system: differentiated myoblast C2C12 cells; test: Glucose uptake of C2C12 cells, 2-NBDG flow cytometry (FACS); assay type: cell-based, mouse; conditions: treated with HdP for 24 hours, 2-NBDG fluorescence, dose-dependent
# Method: The mouse-derived myoblast C2C12 cells (ATCC, Manassas, Va., USA) were suspended in DMEM (Dulbecco's Modified Eagle's Media) medium supplemented with 10% FBS and an antibiotic and cultured at 37° C. under a 5% CO2 atmosphere in an incubator. Upon 80% confluency, the C2C12 cells subjected to differentiation in a DMEM medium containing 2% horse serum and a low concentration of glucose for 5 days, with the medium freshly changed every three days. The differentiated cells were serum starved for 12 hours in serum free DMEM containing a low concentration of glucose, washed with PBS, and then reacted for 24 hours with the sample (HdP) in a fresh serum free DMEM.
# Glucose uptake of mouse-derived myoblast C2C12 cells was measured using flow cytometry (FACS) according to the (2-(N-(7-nitrobenz-2oxa-1,3-diazol-4-yl)amino)-2-deoxyglucose (2-NBDG) assay method (Cell Death Dis. 2017 Oct. 5. 8 (10):e3078). The cultured cells were incubated with 10 μM 2-NBDG at 37° C. for 24 hours and then analyzed using BD FACS Cantoll (BD Biosciences, NJ, USA), with the fluorescence of 2-NBDG detected in a FITC channel.
# [3] = system: zebrafish embryos; test: Intracellular calcium level in zebrafish embryo using Fluo-4; assay type: in vivo
# Method: Intracellular calcium levels of zebrafish embryos were measured using a calcium-sensitive Fluo-4 probe. Embryos were incubated with Fluo-4 at 28.5±1° C. for 30 min before treatment with HdP (0.6, 3, and 6 μg/ml). In order to block the entry of calcium into cells, the embryos were reacted with the calcium chelator BAPTA-AM 0.1 mM for 1 hour before incubation with Fluo-4. The experiment groups included a non-treated group (N), a group treated with Fluo-4 alone (F), a group treated with HdP alone (0.6, 3, and 6 μg/ml), a group treated with Fluo-4 and HdP (0.6, 3, and 6 μg/ml), and a group treated with Fluo-4, BAPTA-AM, and HdP (6 μg/ml).
# [4] = system: zebrafish embryos; test: HdP toxicity in zebrafish embryo; assay type: in vivo; conditions: 1 μg/ml or less HdP, exposed until 168 hours after fertilization
# Method: Four days after fertilization, each of the embryos (n=15) was transferred to 12-well plates, each containing 950 μl of an embryo medium (distilled water containing 60 ppm salt) and 50 μl of HdP (0.01, 0.1, 1, and 10 μg/ml) and the viability of zebrafish embryos exposed to HdP for 168 hours after fertilization were measured.
# [5] = target: yeast α-glucosidase; test: Inhibitory activity against α-glucosidase; assay type: biochemical; conditions: yeast enzyme, PNP-G substrate, pH 7.0, 37° C.; read-out: IC50 (concentration necessary for inhibiting the activity of α-glucosidase by 50%)
# Method: Inhibitory activity against α-glucosidase was evaluated using a yeast enzyme according to the method of Watanabe et al. (Watanabe, Kawabata, Kurihara, & Niki, 1997). In the reaction condition of pH 7.0 and 37° C., 5 mM p-nitrophenyl α-D-glucopyranoside (PNP-G) serving as a substrate was reacted with a dilution of 32 mU/ml enzyme (yeast α-glucosidase, Sigma) in 100 mM phosphate buffer and inhibitory activity was measured using spectrophotometry. The sample was reacted with PNP-G for 5 min and the absorbance of 4-nitrophenol released upon the hydrolysis of PNP-G was read at 405 nm. Subsequently, the same amount of the substrate solution was added and reacted at room temperature for an additional five min., after which the reaction was stopped by adding 0.5 M Na2CO3. A change in absorbance at 405 nm was measured.
# Inhibitory activity (%) against α-glucosidase was calculated according to the formula (1-absorbance of sample-added group/absorbance of solvent-added group)×100).
# Acabose, which is an oral hypoglycemic agent inhibitory of α-glucosidase, was used as a positive control.
structure (smiles),measurement,setting,value
"Oc1cc(O)cc(Oc2cc(O)c(Oc3c(O)cc(O)cc3Oc3cc(O)c(Oc4cc(O)cc(O)c4Oc4cc(O)cc(O)c4Oc4cc(O)cc(O)c4Oc4cc(O)c(Oc5c(O)cc(O)cc5Oc5c(O)cc(Oc6c(O)cc(Oc7c(O)cc(Oc8c(O)cc(Oc9c(O)cc(Oc%10c(O)cc(Oc%11c(O)cc(O)cc%11O)cc%10O)cc9O)cc8O)cc7O)cc6O)cc5O)c(O)c4)c(O)c3)c(O)c2)c1 [HdP, hexadecaphlorethol]",blood glucose level,"[1]; HdP 0.3 μg/g body weight, 90 min",significantly reduced
same,"blood glucose level, HdP plus BAPTA-AM versus alloxan plus BAPTA-AM",[1]; HdP 0.3 μg/g with BAPTA-AM 3 μg/g body weight,No significant differences
same,glucose uptake into differentiated C2C12 cells,[2],significantly increase
same,intracellular Ca2+ level (Fluo-4 phosphorescence) with calcium chelator BAPTA-AM,"[3]; Fluo-4, BAPTA-AM 0.1 mM and HdP 6 μg/ml",phosphorescence decrease
same,intracellular Ca2+ level (Fluo-4 phosphorescence),"[3]; HdP 0.6, 3 and 6 μg/ml with Fluo-4, versus group treated with Fluo-4 alone",significant increase
same,survival rate of zebrafish embryos,[4],≥ 90%
same,IC50,[5],55 µM
"CN(C)C(=N)N=C(N)N [metformin, reference compound]",blood glucose level (effect compared with HdP),"[1]; metformin 5 μg/g body weight, 90 min",similar
